Measurements as given in ChEMBL document CHEMBL5625209, “Rational design and optimization of acylthioureas as novel potent influenza virus non-nucleoside polymerase inhibitors” (Eur J Med Chem, 2023).
Calls of active or inactive are those of the source. The calls are words filed in the database; no cut-off is given here.

Tests used:
[1] = Cytotoxicity against MDCK cells by CCK-8 assay; type: toxicity, cell-based, Canis lupus familiaris; conditions: dog
[2] = Selectivity index, ratio of CC50 for MDCK cells to EC50 for antiviral activity against Influenza A virus H1N1 (A/Puerto Rico/8/34) infected in MDCK cells; type: toxicity, cell-based; conditions: dog, read-out: Ratio CC50/EC50
Influenza A virus = experiment: Antiviral activity against Influenza A virus H1N1 (A/Puerto Rico/8/34) infected in MDCK cells assessed as reduction in virus-induced cytopathic effect incubated for 48 hrs by CCK8 assay; type: functional, organism-based
Influenza B virus [3] = experiment: Antiviral activity against influenza B virus Victoria/2/87 infected in MDCK cells; type: functional, organism-based; conditions: Victoria/2/87, MDCK
Influenza B virus [4] = experiment: Antiviral activity against influenza B virus B/Yamagata/16/88 infected in MDCK cells; type: functional, organism-based; conditions: B/Yamagata/16/88, MDCK

| SMILES | CC50 [1] | selectivity ratio [2] | EC50 (Influenza A virus) | Activity (Influenza A virus) | EC50 (Influenza B virus [3]) | EC50 (Influenza B virus [4]) |
| --- | --- | --- | --- | --- | --- | --- |
| CC(C)(C)c1ccc(C(=O)NC(=O)Nc2ccccc2F)cc1 | 97.9 µM | > 667 | 0.15 µM |  |  |  |
| CC(C)(C)c1ccc(C(=O)NC(=S)Nc2ccc(F)cc2F)cc1 | 95.7 µM | 133 | 0.72 µM |  |  |  |
| CC(C)(C)c1ccc(C(=O)NC(=S)Nc2c(Br)cc(Br)cc2Br)cc1 | 60.7 µM | 169 | 0.36 µM |  |  |  |
| Cc1ncn(-c2ccc(NC(=S)NC(=O)c3ccc(C(C)(C)C)cc3)cc2)n1 | 52.7 µM | 3.1 | 16.9 µM |  |  |  |
| CC(=O)Nc1ccc(NC(=S)NC(=O)c2ccc(Cl)cc2)cc1 |  |  |  | inactive |  |  |
| CC(C)(C)c1ccc(C(=O)NC(=S)Nc2ccccc2Cl)cc1 | 48 µM | 1330 | 0.036 µM |  |  |  |
| CCCc1ccc(C(=O)Nc2ccc(NC(=S)NC(=O)c3ccc(C(C)(C)C)cc3)cc2)cc1 | > 100 µM | > 100000 | 0.001 µM |  |  |  |
| CCCCc1ccc(C(=O)Nc2ccc(NC(=S)NC(=O)c3ccc(C(C)(C)C)cc3)cc2)cc1 | > 100 µM | > 12500 | 0.008 µM |  |  |  |
| O=C(NC(=S)Nc1ccccc1F)c1cc2ccccc2s1 | > 100 µM | > 10 | 10 µM |  |  |  |
| CC(=O)N[C@H]1[C@H]([C@H](O)[C@H](O)CO)OC(C(=O)O)=C[C@@H]1N=C(N)N [ZANAMIVIR] | > 100 µM | > 1540 |  |  |  |  |
| CC(=O)Nc1ccc(NC(=S)NC(=O)c2ccc(C(C)(C)C)cc2)cc1 | 50 µM | 200 | 0.25 µM |  |  |  |
| CC(=O)Nc1ccc(NC(=S)NC(=O)c2ccc(N(C)C)cc2)cc1 |  |  |  | inactive |  |  |
| CCCCCc1ccc(C(=O)Nc2ccc(NC(=S)NC(=O)c3ccc(C(C)(C)C)cc3)cc2)cc1 | 77.2 µM | 7720 | 0.01 µM |  |  |  |
| CC(=O)Nc1ccc(NC(=S)NC(=O)c2cc3ccccc3s2)cc1 | 90.2 µM | 334 | 0.27 µM |  |  |  |
| CC(C)(C)c1ccc(C(=O)NC(=S)Nc2ccccc2F)cc1 | > 100 µM | > 2220 | 0.045 µM |  |  |  |
| CC(C)(C)c1ccc(C(=O)NC(=S)Nc2ccc(NC(=O)c3ccc(Cl)cc3)cc2)cc1 | > 100 µM | > 33300 | 0.003 µM |  | 0.9 µM | 0.3 µM |
| COc1ccccc1NC(=S)NC(=O)c1ccc(C(C)(C)C)cc1 | > 100 µM | > 909 | 0.11 µM |  |  |  |
| CC(C)(C)c1ccc(C(=O)NC(=S)Nc2ccc3ccccc3n2)cc1 | 91.7 µM | 110 | 0.83 µM |  |  |  |
| CC(C)(C)c1ccc(C(=O)NC(=S)Nc2ccc(-n3cncn3)cc2)cc1 | 54 µM | 77.1 | 0.7 µM |  |  |  |
| CC(C)(C)c1ccc(C(=O)N2C(=O)CN(c3ccccc3F)C2=S)cc1 | 25.4 µM | 7.1 | 3.6 µM |  |  |  |
| CC(C)(C)c1ccc(C(=O)NC(=S)Nc2ccc(NC(=O)c3ccc(Br)cc3)cc2)cc1 | > 100 µM | > 12500 | 0.008 µM |  |  |  |
| CC(C)(C)c1ccc(C(=O)NC(=S)Nc2ccccc2Br)cc1 | 85.1 µM | 2660 | 0.032 µM |  |  |  |
| CC(=O)Nc1ccc(NC(=S)NC(=O)c2cccs2)cc1 | 52.2 µM | 21.4 | 2.44 µM |  |  |  |
| Cc1ccc(NC(=S)NC(=O)c2ccc(C(C)(C)C)cc2)c(C)c1 | 97.9 µM | 2220 | 0.044 µM |  |  |  |

| SMILES | CC50 [1] | selectivity ratio [2] | EC50 (Influenza A virus) | Activity (Influenza A virus) | EC50 (Influenza B virus [3]) | EC50 (Influenza B virus [4]) |
| --- | --- | --- | --- | --- | --- | --- |
| CC(C)(C)c1ccc(C(=O)NC(=S)Nc2ccc(NC(=O)c3ccccc3)cc2)cc1 | 77.2 µM | 19300 | 0.004 µM |  | 0.6 µM | 0.7 µM |
| CC(C)(C)c1ccc(C(=O)NC(=S)Nc2c(Br)cccc2Br)cc1 | 70.9 µM | 417 | 0.17 µM |  |  |  |
| CC(C)(C)c1ccc(C(=O)NC(=S)Nn2cnnc2)cc1 | 65.9 µM | 74.9 | 0.88 µM |  |  |  |
| CC(C)(C)c1ccc(C(=O)NC(=S)Nc2cccc(F)c2)cc1 | 50.5 µM | 555 | 0.091 µM |  |  |  |
| Cc1ccc(NC(=S)NC(=O)c2ccc(C(C)(C)C)cc2)c(Br)c1 | 41.1 µM | 1280 | 0.032 µM |  | 6.2 µM | 3.2 µM |
| CC(C)(C)c1ccc(C(=O)NC(=S)Nc2ccccn2)cc1 | > 100 µM | > 314 | 0.319 µM |  |  |  |
| CC(=O)Nc1ccc(NC(=S)NC(=O)c2ccccc2)cc1 |  |  |  | inactive |  |  |
| Cc1ccccc1NC(=S)NC(=O)c1ccc(C(C)(C)C)cc1 | > 100 µM | > 2630 | 0.038 µM |  |  |  |
| COc1ccccc1C(=O)Nc1ccc(NC(=S)NC(=O)c2ccc(C(C)(C)C)cc2)cc1 | 72.2 µM | 2670 | 0.027 µM |  |  |  |
| CC(C)(C)c1ccc(C(=O)NC(=S)Nc2ccc(C(F)(F)F)cc2C(F)(F)F)cc1 | 74.3 µM | 165 | 0.45 µM |  |  |  |
| COc1ccc(C(=O)Nc2ccc(NC(=S)NC(=O)c3ccc(C(C)(C)C)cc3)cc2)cc1 | 72.2 µM | 24100 | 0.003 µM |  | 0.4 µM | 0.3 µM |
| CC(=O)Nc1ccc(NC(=S)NC(=O)c2ccccc2Cl)cc1 |  |  |  | inactive |  |  |
| COc1cccc(C(=O)Nc2ccc(NC(=S)NC(=O)c3ccc(C(C)(C)C)cc3)cc2)c1 | 72.2 µM | 3140 | 0.023 µM |  |  |  |
| CC(C)(C)c1ccc(C(=O)NC(=S)Nc2cc(Br)cc(Br)c2)cc1 | 70.9 µM | 111 | 0.64 µM |  |  |  |
| COc1cccc(C(=O)NC(=S)Nc2ccc(NC(C)=O)cc2)c1 |  |  |  | inactive |  |  |
| CC(C)(C)c1ccc(C(=O)NC(=S)Nc2c(Cl)cc(Cl)cc2Cl)cc1 | 80.2 µM | 167 | 0.48 µM |  |  |  |
| CC(C)(C)c1ccc(C(=O)NC(=S)Nc2ccc(NC(=O)c3ccc(F)cc3)cc2)cc1 | > 100 µM | > 3700 | 0.027 µM |  |  |  |
| CC(=O)Nc1ccc(NC(=S)NC(=O)c2ccc(C(C)C)cc2)cc1 | 46.9 µM | 4.2 | 11.2 µM |  |  |  |
| CC(C)(C)c1ccc(C(=O)NC(=S)Nc2ccc(N)cc2)cc1 | 100 µM | 4170 | 0.024 µM |  | 4.9 µM | 1.9 µM |
| CC(C)(C)C(=O)Nc1ccc(NC(=S)NC(=O)c2ccc(C(C)(C)C)cc2)cc1 | 81 µM | 5400 | 0.015 µM |  |  |  |
| COc1ccc(C(=O)NC(=S)Nc2ccc(NC(C)=O)cc2)cc1 |  |  |  | inactive |  |  |
| CCc1ccc(C(=O)Nc2ccc(NC(=S)NC(=O)c3ccc(C(C)(C)C)cc3)cc2)cc1 | > 100 µM | > 100000 | 0.001 µM |  |  |  |
| Cc1ccc(C(=O)Nc2ccc(NC(=S)NC(=O)c3ccc(C(C)(C)C)cc3)cc2)cc1 | > 100 µM | > 3700 | 0.027 µM |  |  |  |
| CC(C)(C)c1ccc(C(=O)NC(=S)Nc2ccc(F)cc2)cc1 | > 100 µM | > 164 | 0.61 µM |  |  |  |
